From US20230293539A1, “MLL1-WDR5 PROTEIN-PROTEIN INTERACTION INHIBITOR COMPOUNDS AND USES THEREOF” (HUYABIO International, LLC, priority 2022, published 2023)

Columns and labels:
[1] = Liver S9 stability assay; type: in vitro ADME, human; conditions: for half-life at 1 μM / microsomal CLint at 1 μM: Human liver S9; for % Remaining after 60 min incubation: Human liver S9, 1 μM, 5 mM GSH, 37° C.
Experimental: (§1) Liver S9 stability assay: Test compounds (1 μM) and positive control were incubated with 5 mM GSH and liver S9 (1 mg protein/ml) from multiple species (including human, monkey, dog, rat and mouse) at 37° C. at 0, 10, 30, and 60 minutes in duplicate. After adding the stop solution, 100 μL of supernatant were analyzed by LC-MS/MS. The % remaining of test compound, T1/2 (min), and CLint (μL/min/mg) were calculated and were reported.

[2] = Mouse PK (oral); type: in vivo, C57/B16 mice; conditions: for Cmax: plasma; for AUC(0-t) / half-life: C57/B16, plasma
Experimental: Mouse PK: Animals were dosed with a single intravenous bolus or oral gavage administration in naïve C57/B16 mice (Beijing Vital River Laboratory Animal Co., LTD). Blood samples were collected at the respective sampling time points. The quantification of compound concentrations in mouse or rat plasma was quantified using LC-MS/MS method. Plasma concentration versus time data was analyzed by non-compartmental mode approaches using the WinNonlin software program (version 6.3 or above, Pharsight). Pharmacokinetic parameters, including C0 (initial concentration after drug administration), […], Vdss (volume of distribution), Cmax (maximum peak concentration of the drug), Tmax (time required to reach Cmax) T1/2 (time required for drug concentration to decrease by 50% after administration), AUC0-last (area under the concentration-time curve from dosing time t=0 to the time of the last measured concentration), AUC0-inf (total drug exposure across time), MRT0-last (mean residence time from dosing time t=0 to the time of the last measured concentration), MRT0-inf f (mean residence time of total drug exposure), bioavailability (%) (the percentage (or the fraction F) of an administered drug dose that reaches the systemic circulation) for IV and PO groups were calculated. See Table 7 and FIGS. 6A, 6B, 6C and 6D.

[3] = WBS (whole blood stability) assay; type: in vitro ADME; conditions: for % Remaining after 60 min incubation: 2 μM, 37° C.
Experimental: WBS (whole blood stability) assay: The blood samples were collected freshly from multiple species including human, monkey, dog, rat and mouse. 2 μM of test compound and positive control were incubated with the whole blood at 37° C. at 0, 10, 30, 60, and 120 minutes in duplicate. After adding the stop solution, 200 μL of supernatant were analyzed by LC-MS/MS. The % remaining of test compound and T1/2 (min) were calculated and reported.

[4] = Liver S9 stability assay; type: in vitro ADME, rat; conditions: for half-life at 1 μM / microsomal CLint at 1 μM: Rat liver S9; for % Remaining after 60 min incubation: Rat liver S9, 1 μM, 5 mM GSH, 37° C.
Experimental: as §1

[5] = Liver S9 stability assay; type: in vitro ADME, dog; conditions: for half-life at 1 μM / microsomal CLint at 1 μM: Dog liver S9; for % Remaining after 60 min incubation: Dog liver S9, 1 μM, 5 mM GSH, 37° C.
Experimental: as §1

[6] = target: WDR5 (Homo sapiens, UniProt P61964); assay: WDR5 TR-FRET Assay; type: binding; conditions: 5 nM WDR5 protein, 10 nM peptide, read-out: IC50 (MLL1-WDR5 PPI inhibitory activity)
Experimental: WDR5 TR-FRET Assay Procedure: Stock compounds were transferred to the assay plate by Echo Liquid Handler. Reactions were performed in the assay buffer (1×PBS, 300 mM NaCl, 0.5 mM TCEP, 0.1% CHAPS) containing 5 nM WDR5 protein, 10 nM peptide (Ac-ARTEVHLRKS-[Ahx-Ahx][C]-Alexa Fluor 488-NH2) and 0.25 nM Tb-anti His antibody (Tb-Ab) in 384-well white plate (PerkinElmer) with a final volume of 20 μl. Compounds were incubated with WDR5 protein for 30 min at room temperature. Plates were covered, protected from light and incubated for 60 min. at room temperature after adding the peptide and Tb-Ab. EnVision Multimode Plate Reader (PerkinElmer) was used for the TR-FRET assay with excitation wavelength at 340 nm and emission wavelength at 495 and 520 nm. The ratio of the 520/495 nm wavelengths were used to assess the degree of the FRET signal. IC50 was calculated by fitting the inhibition data using XLfit software to sigmoidal dose-response model.

[7] = Compound formulation stability assay; type: physicochemical; conditions: 10 mg/mL in 10% DMSO/10% solutol HS 15/80% water, 2-8° C.
Experimental: Compound formulation stability assay: Test articles were formulated in 10% DMSO/10% solutol HS 15/80% water and stored at 4° C. Formulated compounds were analyzed by a HPLC-UV method for actual concentrations and % remaining on Day 1, 4 and 7 after formulation to determine the stability of the formulated test article. The HPLC system was equipped with Shimadzu LC-20 high-performance liquid chromatograph, SIL-20AC auto sampler, LC-20AB pump and SPD-M20A detector. A Waters XBridge C18 (4.6*100 mm) column was applied for the separation. […]

[8] = Liver S9 stability assay; type: in vitro ADME, mouse; conditions: for half-life at 1 μM / microsomal CLint at 1 μM: Mouse liver S9; for % Remaining after 60 min incubation: Mouse liver S9, 1 μM, 5 mM GSH, 37° C.
Experimental: as §1

[9] = system: MV 411 cells; assay: Cell Viability Assay (CellTiter-Glo); type: cell-based; conditions: Homo sapiens, MV4-11, 72 hours, read-out: IC50 (anti-proliferative activity against leukemia cells)
Experimental: Cell lines and maintenance: All cell lines (MV 411) used for in vitro and in vivo studies were supplied as part of Wuxi AppTech cell bank. Cell lines were maintained in a medium supplemented with 10% heat inactivated fetal bovine serum at 37° C., in an atmosphere of 5% CO2, in air. The tumor cells were routinely subcultured twice weekly. The cells growing in an exponential growth phase were used for the in vitro cell potency and in vivo efficacy studies.
EXAMPLE 1: Cell Viability Assay: For cell cytotoxicity assays, 2000 cells/well were plated in 384-well plates. Twenty four hours after plating, cells were treated with inhibitors at the indicated compound concentrations. On Day 3 (72 hours), cells were lysed with CellTiter-Glo® Luminescent Cell Viability Assay reagent (Promega) and luminescence was read using the EnVision Multi-plate reader. To calculate IC50, a dose-response curve is generated using a nonlinear regression model with a sigmoidal dose response. The formula of surviving rate is shown below. IC50 values were automatically generated by GraphPad Prism 8.0. See FIG. 1A and FIG. 1B and Tables 3 and 4.

SMILES: C[C@H]1CN(c2cc(F)c(-c3cnc(N4CCOCC4)nc3)cc2Nc2ncnc(Cl)c2N)CCN1C [DDO-2213_020, (S)-6-chloro-N4-(2-(3,4-dimethylpiperazin-1-yl)-4-fluoro-5-(2-morpholinopyrimidin-5-yl)phenyl)pyrimidine-4,5-diamine]
- half-life at 1 μM [1]: > 2.42 h
- microsomal CLint at 1 μM [1]: < 4.8 µL/min/mg
- % Remaining after 60 min incubation [1]: 92.1%
- F ([2]; 10 mpk): 61.5%
- F ([2]; 30 mpk): 107.0%
- Cmax ([2]; C57/B16, 10 mg/kg, 10 mpk): 1.67 µM
- Cmax ([2]; C57/B16, 30 mg/kg, 30 mpk): 5.47 µM
- AUC(0-t) ([2]; 10 mg/kg, 10 mpk): 7.1 µM·h
- half-life ([2]; 10 mg/kg, 10 mpk): 3.3 h
- AUC(0-t) ([2]; 30 mg/kg, 30 mpk): 37 µM·h
- half-life ([2]; 30 mg/kg, 30 mpk): 2.7 h
- half-life at 2 μM ([3]; Dog whole blood): > 2.41 h
- % Remaining after 60 min incubation ([3]; Dog whole blood): 101%
- half-life at 2 μM ([3]; Human whole blood): 5 h
- % Remaining after 60 min incubation ([3]; Human whole blood): 103%
- half-life at 2 μM ([3]; Mouse whole blood): > 2.41 h
- % Remaining after 60 min incubation ([3]; Mouse whole blood): 104%
- half-life at 2 μM ([3]; Rat whole blood): > 2.41 h
- % Remaining after 60 min incubation ([3]; Rat whole blood): 1%
- half-life at 1 μM [4]: > 2.42 h
- microsomal CLint at 1 μM [4]: < 4.8 µL/min/mg
- % Remaining after 60 min incubation [4]: 88.8%
- half-life at 1 μM [5]: > 2.42 h
- microsomal CLint at 1 μM [5]: < 4.8 µL/min/mg
- % Remaining after 60 min incubation [5]: 78%
- IC50 [6]: 7.66 nM
- Accuracy % (Day 0) [7]: 89.8%
- Formulation Appearance (Day 0) [7]: clear solution
- Remaining % (Day 0) [7]: 100%
- Accuracy % (Day 1) [7]: 91.6%
- Formulation Appearance (Day 1) [7]: clear solution
- Remaining % (Day 1) [7]: 102%
- Accuracy % (Day 4) [7]: 92.0%
- Formulation Appearance (Day 4) [7]: clear solution
- Remaining % (Day 4) [7]: 100%
- Accuracy % (Day 7) [7]: 95.5%
- Formulation Appearance (Day 7) [7]: clear solution
- Remaining % (Day 7) [7]: 104%
- half-life at 1 μM [8]: > 2.42 h
- microsomal CLint at 1 μM [8]: < 4.8 µL/min/mg
- % Remaining after 60 min incubation [8]: 93.4%
- IC50 [9]: 5810 nM

SMILES: CCN(CC)C(=O)c1cn(-c2cc(NC(=O)c3cc(N)c(F)c(C)c3Cl)c(N3C[C@@H](C)N(C)[C@@H](C)C3)cc2F)nn1 [HYBI-082, 1-(5-(5-amino-2-chloro-4-fluoro-3-methylbenzamido)-2-fluoro-4-((3S,5R)-3,4,5-trimethylpiperazin-1-yl)phenyl)-N,N-diethyl-1H-1,2,3-triazole-4-carboxamide]
- half-life at 1 μM [1]: > 2.42 h
- microsomal CLint at 1 μM [1]: < 4.8 µL/min/mg
- % Remaining after 60 min incubation [1]: 107%
- F ([2]; 10 mpk): 23.3%
- F ([2]; 30 mpk): 27.5%
- Cmax ([2]; C57/B16, 10 mg/kg, 10 mpk): 1.67 µM
- Cmax ([2]; C57/B16, 30 mg/kg, 30 mpk): 4.53 µM
- AUC(0-t) ([2]; 10 mg/kg, 10 mpk): 2.22 µM·h
- half-life ([2]; 10 mg/kg, 10 mpk): 0.8 h
- AUC(0-t) ([2]; 30 mg/kg, 30 mpk): 7.61 µM·h
- half-life ([2]; 30 mg/kg, 30 mpk): 2 h
- half-life at 2 μM ([3]; Dog whole blood): > 2.41 h
- % Remaining after 60 min incubation ([3]; Dog whole blood): 90.6%
- half-life at 2 μM ([3]; Human whole blood): 11.9 h
- % Remaining after 60 min incubation ([3]; Human whole blood): 100%
- half-life at 2 μM ([3]; Mouse whole blood): > 2.41 h
- % Remaining after 60 min incubation ([3]; Mouse whole blood): 82.4%
- half-life at 2 μM ([3]; Rat whole blood): > 2.41 h
- % Remaining after 60 min incubation ([3]; Rat whole blood): 99.6%
- half-life at 1 μM [4]: > 2.42 h
- microsomal CLint at 1 μM [4]: < 4.8 µL/min/mg
- % Remaining after 60 min incubation [4]: 98.3%
- half-life at 1 μM [5]: > 2.42 h
- microsomal CLint at 1 μM [5]: < 4.8 µL/min/mg
- % Remaining after 60 min incubation [5]: 87.3%
- IC50 [6]: 5.32 nM
- Accuracy % (Day 0) [7]: 96.3%
- Formulation Appearance (Day 0) [7]: clear
- Remaining % (Day 0) [7]: 100%
- Accuracy % (Day 1) [7]: 96.0%
- Formulation Appearance (Day 1) [7]: clear
- Remaining % (Day 1) [7]: 100%
- Accuracy % (Day 4) [7]: 99.3%
- Formulation Appearance (Day 4) [7]: clear
- Remaining % (Day 4) [7]: 103%
- Accuracy % (Day 7) [7]: 98.6%
- Formulation Appearance (Day 7) [7]: clear
- Remaining % (Day 7) [7]: 102%
- half-life at 1 μM [8]: > 2.42 h
- microsomal CLint at 1 μM [8]: < 4.8 µL/min/mg
- % Remaining after 60 min incubation [8]: 87.7%
- IC50 [9]: 7680 nM
